In test [1] the target is 15-PGDH (Homo sapiens (Human), UniProt P15428). In words: Detection of 15-PGDH enzyme activity. Format: biochemical. As to conditions: 15-PGDH enzyme inhibitory activity; substrates β-NAD and PGF2α. The text has this:
The formula was shown below: Y=Bottom+(Top-Bottom)/(1+10∧((LogIC50−X)*HillSlope)), wherein X is a log value of a concentration of the compound, and Y is inhibition rate %.

In test [2] the test system is A549 cells. In words: Assay of intracellular PGE2 up-regulatory activity. The test is classed as cell-based. Conditions: Homo sapiens, IL-1β induced, 8 h, relative to positive control group; for activity at 0.3 µM: 300 nM compound, read-out: PGE2 upregulation rate at 300 nM compound concentration; for activity at 0.01 µM: 10 nM compound, read-out: PGE2 upregulation rate at 10 nM compound concentration. The protocol:
• a) A549 cells were inoculated in the 24-well plate, and after cell adhesion, IL-1β was added thereto for 16 h of stimulation to induce COX2 expression and PGE2 production. • b) A solution of the compound to be tested was prepared with the culture medium and gradiently diluted to 3 concentrations of 10 nM, 300 nM and 10,000 nM or 7 concentrations of 0.64 nM, 3.2 nM, 16 nM, 80 nM, 400 nM, 2000 nM and 10,000 nM, and meanwhile the positive control group (only IL-1β was added to the cells for induction) and negative control group (only cells were added in the wells without any treatment) were set up. The cell supernatants were collected after 8 h of action, in which the positive control group was induced by IL-1β without treatment of the compounds, and the negative control group was neither stimulated by IL-1β, nor treated with the compounds. • c) The PGE2 content of the samples was determined by Prostaglandin E2 Kit, and the fluorescence signal was detected by a multifunctional microplate reader (Ex/Em=337/620, 337/665).
• a) A standard curve was plotted with the PGE2 standard in the Prostaglandin E2 Kit, and the PGE2 concentration was calculated by substituting with the fluorescence signal of the sample. • b) The PGE2 upregulation rate % was calculated by using the following formula: • PGE2 upregulation rate %=(PGE2 concentration of sample group/PGE2 concentration of positive control group)×100%.

Structures are written as SMILES.

Chain of 15-PGDH (P15428 whole entry): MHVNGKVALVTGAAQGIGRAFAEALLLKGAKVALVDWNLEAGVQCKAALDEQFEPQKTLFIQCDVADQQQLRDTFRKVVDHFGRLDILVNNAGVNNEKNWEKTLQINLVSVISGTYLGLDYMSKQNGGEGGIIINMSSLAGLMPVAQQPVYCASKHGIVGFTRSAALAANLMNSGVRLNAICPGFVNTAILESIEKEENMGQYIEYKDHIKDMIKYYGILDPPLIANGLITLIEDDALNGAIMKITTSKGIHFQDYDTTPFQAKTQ

Regarding `CN1CCN(c2ncc(-c3cnc4c(N)c(C(=O)N5CCCCC5)sc4n3)cn2)CC1` [Example 28], the IC50 (usually the concentration that gives 50% inhibition) in test [1] was in the range of 0.5 to 3 nM. Besides, the activity at 0.3 µM in test [2] came to 318%.
The compound `Cc1cc(-c2cnc3c(N)c(C(=O)N4CCCCC4)sc3n2)ccn1` [Example 30] had a concentration for half-maximal inhibition (IC50) in test [1] of 0.5 to 3 nM. In addition, the activity at 0.3 µM in test [2] stood at 341%.
Turning to `Nc1c(C(=O)N2CCCCC2)sc2nc(-c3cccnc3)cnc12` [Example 32], the IC50 in test [1] is 3 to 10 nM. Moreover, the activity at 0.01 µM in test [2] came to 530%.
As to `Nc1ncc(-c2cnc3c(N)c(C(=O)N4CCCCC4)sc3n2)cn1` [Example 33], the IC50 in test [1] is less than 0.5 nM. In test [2], the activity at 0.01 µM came out at 393% and the activity at 0.3 µM stood at 754%.
The like results for `Nc1c(C(=O)N2CCCCC2)sc2nc(-c3ccc4ccccc4c3)cnc12` [Example 35] were, in that order, 0.5 to 3 nM, 208% and 231%.
`Cc1ccc(-c2cnc3c(N)c(C(=O)N4CCCCC4)sc3n2)cn1` [Example 36] displayed an IC50 in test [1] of 0.5 to 3 nM. In addition, in test [2], the activity at 0.01 µM amounted to 301% and the activity at 0.3 µM was 384%.
The like results for `Nc1c(C(=O)N2CCCCC2)sc2nc(-c3ccc4nc[nH]c4c3)cnc12` [Example 40] were, in that order, 0.5 to 3 nM, 233% and 315%.
Consider `Cn1ccc(-c2cnc3c(N)c(C(=O)N4CCCCC4)sc3n2)cc1=O` [Example 42], for which the IC50 in test [1] is 0.5 to 3 nM. In test [2], the activity at 0.3 µM amounted to 204%.
On to `COc1cncc(-c2cnc3c(N)c(C(=O)N4CCCCC4)sc3n2)c1` [Example 45], for which the IC50 in test [1] lay within 0.5 to 3 nM. In test [2], the activity at 0.01 µM was 177% and the activity at 0.3 µM was determined as 347%.
For `Nc1c(C(=O)N2CCCCC2)sc2nc(-c3ccc(F)nc3)cnc12` [Example 46], in test [1], the 50% inhibitory concentration (IC50) was in the range of 0.5 to 3 nM. The activity at 0.3 µM in test [2] was 251%.
In turn, `N#Cc1ccc(-c2cnc3c(N)c(C(=O)N4CCCCC4)sc3n2)cn1` [Example 47] showed an IC50 in test [1] of less than 0.5 nM. In addition, in test [2], the activity at 0.01 µM turned out to be 424% and the activity at 0.3 µM worked out at 774%.
In test [1], `CN1Cc2cc(-c3cnc4c(N)c(C(=O)N5CCCCC5)sc4n3)ccc2C1=O` [Example 63] displayed an IC50 of 0.5 to 3 nM. Also, the activity at 0.3 µM in test [2] came out at 222%.
With `Cn1ccc2cc(-c3cnc4c(N)c(C(=O)N5CCCCC5)sc4n3)ccc2c1=O` [Example 64], in test [1], the half-inhibitory concentration (IC50) is 0.5 to 3 nM. Moreover, in test [2], the activity at 0.01 µM is 173% and the activity at 0.3 µM worked out at 196%.

For the origin of these results see patent US20250154162A1, “COMPOUND FOR REGULATING AND CONTROLLING 15-PGDH ACTIVITY AND PREPARATION METHOD THEREFOR” (SCINNOHUB PHARMACEUTICAL CO., LTD., priority 2022, published 2025).
